Data as given in patent publication EP0348735A2, “5-Chlor-4-cyano-thiazol-2-yl-oxyacetic-acid amide” (BAYER AG, priority 1988, dated 1990).

Tested on: Testpflanzen
Assay: Pre-emergence test (herbicidal activity)
Type: in vivo
Conditions: seeds watered with the preparation 24 h after sowing, rated after three weeks, compared in words with the prior-art comparison substance 2-(Benzthiazol-2-yl-oxy)-essigsäure-N-methyl-anilid, no numbers given
Description: Zur Herstellung einer zweckmäßigen Wirkstoffzubereitung vermischt man 1 Gewichtsteil Wirkstoff mit der angegebenen Menge Lösungsmittel, gibt die angegebene Menge Emulgator zu und verdünnt das Konzentrat mit Wasser auf die gewünschte Konzentration.
Samen der Testpflanzen werden in normalen Boden ausgesät und nach 24 Stunden mit der Wirkstoffzubereitung begossen. Dabei hält man die Wassermenge pro Flächeneinheit zweckmäßigerweise konstant. Die Wirkstoffkonzentration in der Zubereitung spielt keine Rolle, entscheidend ist nur die Aufwandmenge des Wirkstoffs pro Flächeneinheit. Nach drei Wochen wird der Schädigungsgrad der Pflanzen bonitiert in % Schädigung im Vergleich zur Entwicklung der unbehandelten Kontrolle.

SMILES: CN(C(=O)COc1nc(C#N)c(Cl)s1)c1ccccc1 [Beispiel 1, 2-(5-Chlor-4-cyanothiazol-2-yl-oxy)-essigsäure-N-methyl-anilid]
- Wirksamkeit (Schädigungsgrad der Pflanzen in % Schädigung im Vergleich zur unbehandelten Kontrolle): deutliche Überlegenheit in der Wirksamkeit
